Results as given in patent US6552015B2, “Azabicycloalkane derivatives and therapeutic uses thereof” (Pfizer Inc., priority 2000, dated 2003).
Counter-ions that a name gives are not always drawn.

melting point | Compound
173 to 175 °C | O=c1[nH]c2c(Cl)cccc2c(=O)n1CCCN1C2CCC1CN(c1ccc(F)cc1)C2 (as salt: maleate)
235 to 238 °C | O=c1[nH]c2c(Cl)cccc2c(=O)n1CCCCN1C2CCC1CN(c1ccc(Cl)cc1)C2 (as salt: maleate)
> 300 °C | Cc1ccc2[nH]c(=O)n(CCCN3C4CCC3CN(c3ccc(Cl)cc3)C4)c(=O)c2c1 (as salt: hydrochloride)
205 to 207 °C | O=c1[nH]c2c(Cl)cccc2c(=O)n1CCCN1C2CCC1CN(c1ccc(C(F)(F)F)cc1)C2 (as salt: maleate)
205 to 207 °C | O=c1[nH]c2c(Cl)cccc2c(=O)n1CCCN1CC2CC1CN2c1ccc(Cl)cc1 (stereo not shown) (as salt: maleate) [Example 41, 8-CHLORO-3-{3-[5-(4-CHLORO-PHENYL)-2,5-DIAZA-BICYCLO[2.2.1]HEPT-2-YL]-PROPYL}-1H-QUINAZOLINE-2,4-DIONE]
205 to 207 °C | O=c1[nH]c2c(Cl)cccc2c(=O)n1CCCN1C2CCC1CN(c1ccc(Cl)c(Cl)c1)C2 (as salt: maleate)
217 to 219 °C | Cc1ccc(N2CC3CCC(C2)N3CCCn2c(=O)[nH]c3c(Cl)cccc3c2=O)c(C)c1 (as salt: maleate)
187 to 189 °C | O=c1[nH]c2ccccc2c(=O)n1CCCCN1C2CCC1CN(c1ccc(Cl)cc1)C2 (as salt: maleate)
186 to 188 °C | O=c1[nH]c2c(Cl)cccc2c(=O)n1CCCN1C2CCC1CN(c1ccc(Cl)cc1)C2 (as salt: maleate)

More lines, now with the values behind:

Compound | melting point
O=c1[nH]c2c(Cl)cccc2c(=O)n1CCCN1CC2CC1CN2c1cccc(F)c1 (stereo not shown) (as salt: maleate) [Example 42, 8-CHLORO-3-{3-[5-(3-FLUORO-PHENYL)-2,5-DIAZA-BICYCLO[2.2.1]HEPT-2-YL]-PROPYL}-1H-QUINAZOLINE-2,4-DIONE] | 168 to 170 °C
O=c1[nH]c2c(Cl)cccc2c(=O)n1CCCN1CC2CCC1CN2c1ccc(Cl)c(Cl)c1 (stereo not shown) (as salt: maleate) [Example 48, 8-CHLORO-3-{3-[5-(3,4-DICHLORO-PHENYL)-2,5-DIAZA-BICYCLO[2.2.2]OCT-2-YL]-PROPYL}-1H-QUINAZOLINE-2,4-DIONE] | 68 to 73 °C (dec.)
O=c1[nH]c2c(Cl)cccc2c(=O)n1CCCN1CC2CCC1CN2c1ccc(F)cc1 (stereo not shown) (as salt: maleate) [Example 46, 8-CHLORO-3-{3-[5-(4-FLUORO-PHENYL)-2,5-DIAZA-BICYCLO[2.2.2]OCT-2-YL]-PROPYL}-1H-QUINAZOLINE-2,4-DIONE] | 186 to 188 °C
O=c1[nH]c2ccccc2c(=O)n1CCCN1C2CCC1CN(c1ccc(F)cc1)C2 (as salt: maleate) | 70 to 74 °C
Cc1ccc(N2CC3CCC2CN3CCCn2c(=O)[nH]c3c(Cl)cccc3c2=O)c(C)c1 (stereo not shown) (as salt: maleate) | 149 to 151 °C
O=c1[nH]c2ccccc2c(=O)n1CCCN1C2CCC1CN(c1ccc(Cl)c(Cl)c1)C2 (as salt: maleate) | 105 to 108 °C (dec.)
O=c1[nH]c2ccccc2c(=O)n1CCCN1CC2CCC1CN2c1ccc(F)cc1 (stereo not shown) (as salt: maleate) [Example 49, 3-{3-[5-(4-FLUORO-PHENYL)-2,5-DIAZA-BICYCLO[2.2.2]OCT-2-YL]-PROPYL}-1H-QUINAZOLINE-2,4-DIONE] | 95 to 98 °C (dec.)
